Key:
[1] = target: T1, Jurkat cells expressing CXCR4 (Homo sapiens, UniProt P61073); assay: Chemokine (CXCL12-AF647) binding inhibition assay; settings: CXCL12-AF647 25 ng/mL, read-out: IC50 CXCL-12 binding Jurkat
T1 construct: endogenous in cells; host or cells: Jurkat
Description: Chemokine (CXCL12-AF647) Binding Inhibition Assay
Jurkat cells expressing CXCR4 were washed once with assay buffer (Hanks' balanced salt solution with 20 mM HEPES buffer and 0.2% bovine serum albumin, pH 7.4) and then incubated for 15 min at room temperature with the test compounds diluted in assay buffer at dose-dependent concentrations. Subsequently, CXCL12-AF647 (25 ng/mL) was added to the compound-incubated cells. The cells were incubated for 30 min at room temperature. Thereafter, the cells were washed twice in assay buffer, fixed in 1% paraformaldehyde in PBS, and analyzed on the FL4 channel of a FACSCalibur flow cytometer equipped with a 635-nm red diode laser (Becton Dickinson, San Jose, Calif., USA).
The percentages of inhibition of CXCL12-AF647 binding were calculated according to the formula: [1−((MFI−MFINC)/(MFIPC−MFINC))]×100 where MFI is the mean fluorescence intensity of the cells incubated with CXCL12-AF647 in the presence of the inhibitor, MFINC is the mean fluorescence intensity measured in the negative control (i.e., autofluorescence of unlabeled cells), and MFIPC is the mean fluorescence intensity of the positive control (i.e., cells exposed to CXCL12-AF647 alone).

[2] = target: T2, CXCR-4 transfected U87 cell line (U87.CXCR4) (Homo sapiens, UniProt P61073); assay: Intracellular CXCL-12-induced calcium mobilization assay (FLIPR); type: cell-based; settings: U87.CXCR4 cells; CXCL-12 25-50 ng/mL; compound added 15 min before; read-out: IC50 CXCL-12 Ca^2+ flux U87.CXCR4+
T2 construct: expressed in transfected cells; host or cells: U87 (U87.CXCR4)
T2 sequence (P61073 whole entry): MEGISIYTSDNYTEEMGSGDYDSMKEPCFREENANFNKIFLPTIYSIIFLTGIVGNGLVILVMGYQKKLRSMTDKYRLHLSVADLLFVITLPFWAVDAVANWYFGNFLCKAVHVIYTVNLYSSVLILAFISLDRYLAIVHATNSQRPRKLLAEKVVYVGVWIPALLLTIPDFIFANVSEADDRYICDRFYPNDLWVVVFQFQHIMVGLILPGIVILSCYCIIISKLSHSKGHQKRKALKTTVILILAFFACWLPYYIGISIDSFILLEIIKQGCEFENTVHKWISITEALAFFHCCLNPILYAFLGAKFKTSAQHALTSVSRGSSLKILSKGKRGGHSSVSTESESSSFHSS
Description: Example 36: REGA Screening Assay
Intracellular CXCL-12-Induced Calcium Mobilization Assay
Intracellular calcium mobilization induced by chemokines or chemokine-derived peptides were evaluated using a calcium responsive fluorescent probe and a FLIPR system. The CXCR-4 transfected U87 cell line (U87.CXCR4) cells were seeded in gelatine-coated black-wall 96-well plates at 20,000 cells per well and incubated for 12 hours. Cells were then loaded with the fluorescent calcium probe Fluo-2 acetoxymethyl at 4 μM final concentration in assay buffer (Hanks' balanced salt solution with 20 mM HEPES buffer and 0.2% bovine serum albumin, pH 7.4) for 45 min at 37° C. The intracellular calcium mobilization induced by the CXCL-12 (25-50 ng/mL) was then measured at 37° C. by monitoring the fluorescence as a function of time in all the wells simultaneously using a fluorometric imaging plate reader (FLIPR Tetra, Molecular Devices).

[3] = in vitro; settings: human, Caco-2, pH 7.4
Description: Example 37: Caco-2 Permeability Assay
The goal of this assay was to evaluate the intestinal absorption potential of drug candidates using Caco-2 cell lines.
HBSS buffer with 0.3% DMSO and 5 μM LY: add 150 μL DMSO and 50 μL LY (5 mM) into 50 ml HBSS buffer (pH 7.4).
HBSS buffer with 0.1% DMSO and 5 μM LY: add 50 μL DMSO and 50 μL LY (5 mM) into 50 mL HBSS buffer (pH 7.4).
HBSS buffer with 0.3% DMSO: add 150 μL DMSO into 50 ml HBSS buffer (pH 7.4).
HBSS buffer with 0.1% DMSO: add 50 μL DMSO into 50 ml HBSS buffer (pH 7.4).
Prepare HBSS buffer with 0.4% DMSO: add 200 μL DMSO into 50 ml HBSS buffer (pH 7.4).
Prepare HBSS buffer with 0.4% DMSO and 5 μM LY: add 200 μL DMSO and 50 μL LY (5 mM) into 50 ml HBSS buffer (pH 7.4).
4. Measure TEER Take cell culture plate out of incubator, wash the cell monolayers with HBSS buffer, and then measure TEER values at Rm temperature. 5. Centrifuge Centrifuge the compound solution (from step 3) at 4000 rpm for 5 min before loading to donor chambers. 6. Dosing Add solution based on the volumes listed in the following table (make sure to take extra 100 μL of donor sample for T0 as Backup).
7. Apical LYT0 samples To determine LY concentration in the apical chember, take 100 μL sample from apical chambers into an opaque plate for LYT0. 8. Prewarm Prewarm apical and basolateral plates at 37° C. for about 5 min, then begin transport by placing the apical plate onto basolateral plate. 9. Incubation Keep the plates in incubator at 37° C. for 90 min. 10. Standard Curve preparation
11. Transport termination Separate the apical plate from the basolateral plate after 90-min incubation.
Receiver sample: 60 μL of receiver sample+60 μL ACN with IS (Osalmid or Imipramine)
Study details: Test concentration 10 μM
Test systems: Caco-2/HBSS solution
Incubation conditions: 0, 90 min at 37° C.
Sample size: Duplicates (n=2)
Bioanalytical method: LC-MS/MS
For Millicell-24 Cell Culture Plates: surface area of the membrane=0.7 cm^2, VA=0.8 mL (A-to-B) or 0.4 mL (B-to-A)
1. Papp values were calculated based on calculated concentrations.
The compound numbers correspond to the compound numbers in Table 1.

T1 sequence (P61073 whole entry): as above

Row | SMILES | IC50 [1] [nM] | IC50 [2] [nM] | Papp A→B at 90 min, 10 μM [3] [×10⁻⁶ cm/s] | Papp B→A at 90 min, 10 μM [3] [×10⁻⁶ cm/s] | efflux ratio at 90 min, 10 μM [3]
1 | CCN1CCC(Oc2cccc3nc([C@H]4CCC[C@@H](c5ncccc5C)N4C)[nH]c23)CC1 [I-43] | 0.01 to 100 | 0.01 to 100 | 0.1 to 10 | 10 to 30 | 0.1 to 10
2 | Cc1cccnc1[C@@H]1CCC[C@H](c2nc3cccc(N4CCN(C(C)C)CC4)c3[nH]2)N1C [I-75] | 0.01 to 100 | 0.01 to 100 | 10 to 30 | 0.1 to 10 | 0.1 to 10
3 | CN1CCC(n2c([C@H]3CCC[C@@H](c4ccccn4)N3)nc3ccccc32)CC1 [I-154] | 0.01 to 100 | 100 to 1000 | 10 to 30 | 10 to 30 | 0.1 to 10
4 | Cc1cccnc1[C@@H]1CCC[C@H](c2nc3ccccc3n2CC2CCN(CC(F)(F)F)CC2)N1C [I-24, 2-((2R,6S)-1-methyl-6-(3-methylpyridin-2-yl)piperidin-2-yl)-1-((1-(2,2,2-trifluoroethyl)piperidin-4-yl)methyl)-1H-benzo[d]imidazole] | 100 to 1000 | ≥ 1000 | 10 to 30 | 10 to 30 | 0.1 to 10
5 | Cc1cccnc1[C@@H]1CCC[C@H](c2nc3ccccc3n2CC2CCCNC2)N1C (stereo partly drawn) [I-12, 2-((2R,6S)-1-methyl-6-(3-methylpyridin-2-yl)piperidin-2-yl)-1-(piperidin-3-ylmethyl)-1H-benzo[d]imidazole] | 0.01 to 100 | 0.01 to 100 | 0.1 to 10 | 10 to 30 | 10 to 30
6 | Cc1cc(F)cnc1[C@@H]1CCC[C@H](c2nccn2C2CCN(C)CC2)N1 [I-173] | ≥ 1000 | ≥ 1000 | 10 to 30 | 10 to 30 | 0.1 to 10
7 | Cc1cccnc1[C@@H]1CCC[C@H](c2nc3ccccc3n2CCn2cccn2)N1C [I-7, 1-(2-(1H-pyrazol-1-yl)ethyl)-2-((2R,6S)-1-methyl-6-(3-methylpyridin-2-yl)piperidin-2-yl)-1H-benzo[d]imidazole] | 0.01 to 100 | ≥ 1000 | 10 to 30 | 10 to 30 | 0.1 to 10
8 | Cc1cccnc1[C@@H]1CCC[C@H](c2nc3cccc(N4CC5CC4CN5C)c3[nH]2)N1C (stereo partly drawn) [I-110] | 0.01 to 100 | 100 to 1000 | 0.1 to 10 | 10 to 30 | 0.1 to 10
9 | CN1CCN(c2cccc3nc([C@H]4CCC[C@@H](c5nccc6ccccc56)N4C)[nH]c23)CC1 [I-88] | 0.01 to 100 | 0.01 to 100 | 0.1 to 10 | 0.1 to 10 | 0.1 to 10
10 | Cc1cccnc1[C@@H]1CCC[C@H](c2nc3cccc(N4CCC(N(C)C)CC4)c3[nH]2)N1C [I-67] | 0.01 to 100 | 0.01 to 100 | 0.1 to 10 | 10 to 30 | 0.1 to 10
11 | Cc1c(Cl)ccnc1[C@@H]1CCC[C@H](c2nc3cccc(N4CCN(C)CC4)c3[nH]2)N1 [I-140] | 0.01 to 100 | 0.01 to 100 | 0.1 to 10 | 10 to 30 | 0.1 to 10
12 | Cc1cccnc1[C@@H]1CCC[C@H](c2nc3cccc(N4CC5CCC(C4)N5)c3[nH]2)N1C [I-98] | 0.01 to 100 | 0.01 to 100 | 0.1 to 10 | 10 to 30 | > 30
13 | CN1CCC(c2cccc3nc([C@H]4CCC[C@@H](c5ncccc5Cl)N4)[nH]c23)CC1 [I-152] | 0.01 to 100 | 0.01 to 100 | 0.1 to 10 | 10 to 30 | 0.1 to 10
14 | Cc1nccnc1[C@@H]1CCC[C@H](c2nc3cccc(N4CCN(C)CC4)c3[nH]2)N1C [I-105] | 100 to 1000 | ≥ 1000 | 0.1 to 10 | 10 to 30 | 0.1 to 10
15 | Cc1cccnc1[C@@H]1CCC[C@H](c2nc3ccccc3n2CCCCN2CCC(F)(F)CC2)N1C [I-41] | 0.01 to 100 | ≥ 1000 | 0.1 to 10 | 0.1 to 10 | 0.1 to 10
16 | Cc1cccnc1[C@@H]1CCC[C@H](c2nc3cccc(N4C[C@@H](C)N[C@@H](C)C4)c3[nH]2)N1C [I-51] | 0.01 to 100 | 0.01 to 100 | 0.1 to 10 | 10 to 30 | 0.1 to 10
17 | Cc1cccnc1[C@@H]1CCC[C@H](c2nc3ccccc3n2CC2CCCN(C)C2)N1C (stereo partly drawn) [I-13, 2-((2R,6S)-1-methyl-6-(3-methylpyridin-2-yl)piperidin-2-yl)-1-((1-methylpiperidin-3-yl)methyl)-1H-benzo[d]imidazole] | 0.01 to 100 | 0.01 to 100 | 0.1 to 10 | 10 to 30 | 0.1 to 10
18 | Cc1cccnc1[C@@H]1CCC[C@H](c2nc3ccccc3n2CCC#N)N1C [I-160] | 100 to 1000 | ≥ 1000 | > 30 | > 30 | 0.1 to 10
19 | Cc1cccnc1[C@@H]1C[C@H](O)C[C@H](c2nc3cccc(N4CCN(C)CC4)c3[nH]2)N1C [I-100] | 0.01 to 100 | 0.01 to 100 | 0.1 to 10 | 10 to 30 | > 30
20 | CN1CCN(c2cccc3nc([C@H]4CCC[C@@H](c5nccn6cccc56)N4C)[nH]c23)CC1 (stereo in doubt) [I-90] | 0.01 to 100 | 100 to 1000 | 10 to 30 | 10 to 30 | 0.1 to 10
21 | CN1CCC(n2c([C@H]3CCC[C@@H](c4ncccc4Cl)N3C)nc3ccccc32)CC1 [I-134] | 0.01 to 100 | 0.01 to 100 | 10 to 30 | 10 to 30 | 0.1 to 10
22 | Cc1cccnc1[C@@H]1CCC[C@H](c2nc3cccc(N4CCN(C)CC4=O)c3[nH]2)N1C [I-73] | 0.01 to 100 | 100 to 1000 | 0.1 to 10 | 10 to 30 | > 30
23 | COc1cccnc1[C@@H]1CCC[C@H](c2nc3cccc(N4CCN(C)CC4)c3[nH]2)N1C [I-62] | 0.01 to 100 | 0.01 to 100 | 0.1 to 10 | 10 to 30 | 0.1 to 10
24 | CCc1cccnc1[C@@H]1CCC[C@H](c2nc3cccc(N4CCN(C)CC4)c3[nH]2)N1C [I-114] | 0.01 to 100 | 0.01 to 100 | 10 to 30 | 10 to 30 | 0.1 to 10
